System: SK-OV-3 cells
Assay: Effect of compounds on tryptophan catabolism in SK-OV-3 cell line (inhibition of kynurenine production, LC-MS/MS)
Format: cell-based
Conditions: Homo sapiens, SK-OV-3, 24 h, SK-OV-3 cell line, 24 h incubation, kynurenine in supernatant by LC-MS/MS; read-out: IC50 Ranges (ic50 values for inhibition of Kynurenine production)
Method in brief: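 Kynurenine in supernatants quantified by LC-MS/MS after 24 h compound exposure (37 °C; top 30 μM, eight 3-fold steps, duplicate) in DMEM F-12 containing 6 mg/mL L-tryptophan. Cells pre-plated overnight in McCoy's 5A with 10% FBS. Viability checked in parallel by ATP luminescence.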

Compound | IC50 [nM]
Cc1oc(-c2ccccc2)nc1CNC(=O)Nc1ccccc1 [Compound 203, 1-[(5-methyl-2-phenyl-oxazol-4-yl)methyl]-3-phenyl-urea] | 1000 to 5000
COc1ccc(NC(=O)N(Cc2cccs2)C2CCCC2)c(OC)c1 [Compound 18, 1-cyclopentyl-3-(2,4-dimethoxyphenyl)-1-(2-thienylmethyl)urea] | 1000 to 5000
CCc1ccc(CN(C(=O)Nc2ccc(C#N)cc2)c2cnoc2C)o1 [Compound 299, 3-(4-cyanophenyl)-1-[(5-ethyl-2-furyl)methyl]-1-(5-methylisoxazol-4-yl)urea] | 100 to 500
O=C(Nc1ccc(F)cc1)N(Cc1ccno1)C1CCCC1 [Compound 127, 1-cyclopentyl-3-(4-fluorophenyl)-1-(isoxazol-5-ylmethyl)urea] | > 5000
Cc1oncc1N(Cc1ccc2scnc2c1)C(=O)Nc1ccc(C#N)cc1 [Compound 281, 1-(1,3-benzothiazol-5-ylmethyl)-3-(4-cyanophenyl)-1-(5-methylisoxazol-4-yl)urea] | 1000 to 5000
O=C(Nc1ccc(Cl)cc1)N(Cc1ccc2ncoc2c1)C1CCC1 [Compound 237, 1-(1,3-benzoxazol-6-ylmethyl)-3-(4-chlorophenyl)-1-cyclobutyl-urea] | 100 to 500
N#CCc1ccc(NC(=O)N(Cc2cccs2)C2CCCC2)cc1 [Compound 6, 3-[4-(cyanomethyl)phenyl]-1-cyclopentyl-1-(2-thienylmethyl)urea] | 1000 to 5000
Cc1ccc(CN(C(=O)Nc2ccc(-c3cnn(C(=O)OC(C)(C)C)c3)cc2)C2CCCC2)o1 [Compound 99, tert-butyl 4-[4-[[cyclopentyl-[(5-methyl-2-furyl)methyl]carbamoyl]amino]phenyl]pyrazole-1-carboxylate] | 500 to 1000
Cc1ccc(CN(C(=O)Nc2ccc(Cl)cc2)c2cnc[nH]2)o1 [Compound 183, 3-(4-chlorophenyl)-1-(1H-imidazol-5-yl)-1-[(5-methyl-2-furyl)methyl]urea] | 1000 to 5000
Cc1ccc(CN(C(=O)Nc2ccc(Cl)cc2)C2CCCC2C#N)o1 (stereo not drawn) [Compound 227, 3-(4-chlorophenyl)-1-(2-cyanocyclopentyl)-1-[(5-methyl-2-furyl)methyl]urea] | < 100
Cc1ccc(CN(C(=O)Nc2ccc(Cl)cc2)c2cnnn2C)o1 [Compound 267, 3-(4-chlorophenyl)-1-[(5-methyl-2-furyl)methyl]-1-(3-methyltriazol-4-yl)urea] | 100 to 500
N#Cc1ccc(NC(=O)N(Cc2ccc3ncoc3c2)C2CCC2)cc1 [Compound 209, 1-(1,3-benzoxazol-6-ylmethyl)-3-(4-cyanophenyl)-1-cyclobutyl-urea] | 500 to 1000
Cn1ncc(CN(C(=O)Nc2ccccc2)C2CCCC2)c1Cl [Compound 41, 1-[(5-chloro-1-methyl-pyrazol-4-yl)methyl]-1-cyclopentyl-3-phenyl-urea] | 1000 to 5000
Cc1ccc(CN(C(=O)NCCc2ccccc2)C2CCCC2)o1 [Compound 181, 1-cyclopentyl-1-[(5-methyl-2-furyl)methyl]-3-(2-phenylethyl)urea] | 1000 to 5000
CCc1c(C)sc2c1CCN(C(=O)Nc1cc(C)cc(C)c1)C2c1ccccc1 (racemic) [Compound 194, N-(3,5-dimethylphenyl)-3-ethyl-2-methyl-7-phenyl-5,7-dihydro-4H-thieno[2,3-c]pyridine-6-carboxamide] | 100 to 500
Cn1ncc2ccc(CN(C(=O)Nc3ccc(Cl)cc3)C3CCC3)cc21 [Compound 235, 3-(4-chlorophenyl)-1-cyclobutyl-1-[(1-methylindazol-6-yl)methyl]urea] | < 100
COc1ncc(CN(C(=O)Nc2ccccc2)C2CCCC2)s1 [Compound 49, 1-cyclopentyl-1-[(2-methoxythiazol-5-yl)methyl]-3-phenyl-urea] | 1000 to 5000
O=C(Nc1ccncc1)N(Cc1cccs1)C1CCCC1 [Compound 11, 1-cyclopentyl-3-(4-pyridyl)-1-(2-thienylmethyl)urea] | 1000 to 5000
N#Cc1cccc(CN(C(=O)Nc2ccc(C#CCO)cc2)C2CCC2)n1 [Compound 319] | < 100
O=C(Nc1ccc(Cl)cc1)N(Cc1ccn2ccnc2n1)C1CCC1 [Compound 275, 3-(4-chlorophenyl)-1-cyclobutyl-1-(imidazo[1,2-a]pyrimidin-7-ylmethyl)urea] | 1000 to 5000
Cc1ccc(CN(C(=O)Nc2ccc(C3COC3)cc2)C2CCCC2)o1 [Compound 317, 1-cyclopentyl-1-[(5-methyl-2-furyl)methyl]-3-[4-(oxetan-3-yl)phenyl]urea] | 1000 to 5000
O=C(Nc1ccc(F)c(F)c1)N(Cc1nccs1)C1CCCC1 [Compound 37, 1-cyclopentyl-3-(3,4-difluorophenyl)-1-(thiazol-2-ylmethyl)urea] | 1000 to 5000
Cc1ccc(CN(C(=O)Nc2ccc(Cl)cc2)[C@H]2C[C@H](F)C2)o1 [Compound 273, 3-(4-chlorophenyl)-1-(3-fluorocyclobutyl)-1-[(5-methyl-2-furyl)methyl]urea] | 100 to 500

Compound | IC50 [nM]
Cc1ccc(CN(C(=O)Nc2ccc(C#N)cc2)C23CC(C2)C3)o1 [Compound 285, 1-(1-bicyclo[1.1.1]pentanyl)-3-(4-cyanophenyl)-1-[(5-methyl-2-furyl)methyl]urea] | 100 to 500
C#Cc1cnc(NC(=O)N(Cc2ccc(C)o2)C2CCCC2)nc1 [Compound 17, 1-cyclopentyl-3-(5-ethynylpyrimidin-2-yl)-1-[(5-methyl-2-furyl)methyl]urea] | 100 to 500
Cc1ccc(CN(C(=O)Nc2ccc(Cl)cc2)C23CC(C2)C3)o1 [Compound 284, 1-(1-bicyclo[1.1.1]pentanyl)-3-(4-chlorophenyl)-1-[(5-methyl-2-furyl)methyl]urea] | 100 to 500
Cc1oncc1N(Cc1ccnc(C(F)(F)F)c1)C(=O)Nc1ccc(C#N)cc1 [Compound 288, 3-(4-cyanophenyl)-1-(5-methylisoxazol-4-yl)-1-[[2-(trifluoromethyl)-4-pyridyl]methyl]urea] | 1000 to 5000
Cc1ccc(CN(C(=O)Nc2ccc(C#N)cc2)c2cncn2C)o1 [Compound 231, 3-(4-cyanophenyl)-1-[(5-methyl-2-furyl)methyl]-1-(3-methylimidazol-4-yl)urea] | 1000 to 5000
O=C(Nc1ccc(Cl)cc1)N(Cc1cccc2ncsc12)C1CCC1 [Compound 262, 1-(1,3-benzothiazol-7-ylmethyl)-3-(4-chlorophenyl)-1-cyclobutyl-urea] | < 100
Cc1ccc(CN(C(=O)Nc2ccc(Cl)cc2)[C@H]2C[C@@H](F)C2)o1 [Compound 271, 3-(4-chlorophenyl)-1-(3-fluorocyclobutyl)-1-[(5-methyl-2-furyl)methyl]urea] | 100 to 500
CN(C(=O)N(Cc1cccs1)C1CCCC1)c1ccccc1 [Compound 23, 1-cyclopentyl-3-methyl-3-phenyl-1-(2-thienylmethyl)urea] | > 5000
O=C(Nc1ccccc1Cl)N(Cc1cccs1)C1CCCC1 [Compound 2, 3-(2-chlorophenyl)-1-cyclopentyl-1-(2-thienylmethyl)urea] | 1000 to 5000
O=C(Nc1ccc(Cl)cc1)N(Cc1ccc2ncsc2c1)C1CCC1 [Compound 243, 1-(1,3-benzothiazol-6-ylmethyl)-3-(4-chlorophenyl)-1-cyclobutyl-urea] | 100 to 500
Cc1ccc(CN(C(=O)Nc2ccc(C#N)cc2)c2conc2C)o1 [Compound 278, 3-(4-cyanophenyl)-1-[(5-methyl-2-furyl)methyl]-1-(3-methylisoxazol-4-yl)urea] | < 100
CC1(CN(C(=O)Nc2ccc(Cl)cc2)C2CCCC2)CCN(C(=O)OC(C)(C)C)CC1 [Compound 79, tert-butyl 4-[[(4-chlorophenyl)carbamoyl-cyclopentyl-amino]methyl]-4-methyl-piperidine-1-carboxylate] | 100 to 500
COc1cc(NC(=O)N(Cc2ccc(C)o2)C2CCCC2)ccc1C#N [Compound 205] | 100 to 500
O=C(Nc1ccc(Cl)cc1)N(Cc1ccncc1)C1CCCC1 [Compound 76, 3-(4-chlorophenyl)-1-cyclopentyl-1-(4-pyridylmethyl)urea] | 500 to 1000
Cc1ccc(CN(C(=O)Nc2ccc(C#Cc3ccccc3)cc2)C2CCCC2)o1 [Compound 155, 1-cyclopentyl-1-[(5-methyl-2-furyl)methyl]-3-[4-(2-phenylethynyl)phenyl]urea] | 500 to 1000
Cc1ccc(CN(C(=O)Nc2ccc(C#N)cc2)C2CCC(F)(F)C2)o1 (stereo not drawn) [Compound 244, 3-(4-cyanophenyl)-1-(3,3-difluorocyclopentyl)-1-[(5-methyl-2-furyl)methyl]urea] | 100 to 500
O=C(Nc1ccc(F)cc1)N(Cc1ccccn1)C1CCCC1 [Compound 68, 1-cyclopentyl-3-(4-fluorophenyl)-1-(2-pyridylmethyl)urea] | 1000 to 5000
O=C(Nc1ccc(F)cc1)N(Cc1cnoc1)C1CCCC1 [Compound 62, 1-cyclopentyl-3-(4-fluorophenyl)-1-(isoxazol-4-ylmethyl)urea] | > 5000
Cc1ncc(CN(C(=O)Nc2ccc(C#CCO)cc2)C2CCCC2)o1 [Compound 294, 1-cyclopentyl-3-[4-(3-hydroxyprop-1-ynyl)phenyl]-1-[(2-methyloxazol-5-yl)methyl]urea] | < 100
Cc1ccc(CN(C(=O)Nc2ccc(C#N)cc2)c2c(C)noc2C)o1 [Compound 230, 3-(4-cyanophenyl)-1-(3,5-dimethylisoxazol-4-yl)-1-[(5-methyl-2-furyl)methyl]urea] | 100 to 500
C#Cc1ccc(NC(=O)N(Cc2cc3ccccc3o2)C2CCCC2)cc1 [Compound 131, 1-(benzofuran-2-ylmethyl)-1-cyclopentyl-3-(4-ethynylphenyl)urea] | < 100
O=C(Nc1ccc(F)c(F)c1)N(Cc1ccco1)C1CCCC1 [Compound 30, 1-cyclopentyl-3-(3,4-difluorophenyl)-1-(2-furylmethyl)urea] | 100 to 500
